#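 Results reflect a 48-hour exposure of cells in 96-well plates to compound at five concentrations. At the GI50, growth is halved.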 Calls of active or inactive are those of the source. Cut-off read from the data, not from the text of the source: active = GI50 up to about 1.1 µM and inactive = higher.
# What was measured:
# Test in all cases: growth of human tumour cells (NCI), 48 h
# NCI-H522 = system: NCI-H522
# RPMI-8226 = system: RPMI-8226
# UO-31 = system: UO-31
# A549 = system: A549
# OVCAR-8 = system: OVCAR-8
# KM12 = system: KM12
# SK-MEL-28 = system: SK-MEL-28
# DLD-1 = system: DLD-1
# UACC-257 = system: UACC-257
# XF498 = system: XF498
# DMS-273 = system: DMS-273
# SNB-19 = system: SNB-19
# SF-295 = system: SF-295
# U-251 = system: U-251
# NCI-H460 = system: NCI-H460
# A498 = system: A498
# IGROV-1 = system: IGROV-1
# SN12C = system: SN12C
# HCT-15 = system: HCT-15
# TK-10 = system: TK-10
# OVCAR-3 = system: OVCAR-3
# COLO 205 = system: COLO 205
# HOP-62 = system: HOP-62
# M14 = system: M14
# SR = system: SR
# HOP-92 = system: HOP-92
# SW-620 = system: SW-620
# HT-29 = system: HT-29
# RXF 393 = system: RXF 393
# ACHN = system: ACHN
# SNB-78 = system: SNB-78
# SK-OV-3 = system: SK-OV-3
# K562 = system: K562
# KM-20L2 = system: KM-20L2
# UACC-62 = system: UACC-62
# DMS-114 = system: DMS-114
# NCI-H23 = system: NCI-H23
# 786-0 = system: 786-0
# HL-60 = system: HL-60
# LOX IMVI = system: LOX IMVI
# Malme-3M = system: Malme-3M
# EKVX = system: EKVX
# HCC 2998 = system: HCC 2998
# LXFL 529 = system: LXFL 529
# HOP-18 = system: HOP-18
# NCI-H226 = system: NCI-H226
# SNB-75 = system: SNB-75
# SF-539 = system: SF-539
# HCT-116 = system: HCT-116
# CCRF-CEM = system: CCRF-CEM
# SK-MEL-2 = system: SK-MEL-2
# OVCAR-4 = system: OVCAR-4
# MOLT-4 = system: MOLT-4
# SF-268 = system: SF-268
# SK-MEL-5 = system: SK-MEL-5
# OVCAR-5 = system: OVCAR-5
# CAKI-1 = system: CAKI-1
# M19-MEL = system: M19-MEL
smiles,measurement,setting,value
c1ccc2c(c1)nnn2CNc1ccc(N2CCCCC2)cc1,GI50,NCI-H522,> 100 µM (inactive)
same,GI50,RPMI-8226,68.2 µM (inactive)
same,GI50,UO-31,> 100 µM (inactive)
same,GI50,A549,> 100 µM (inactive)
same,GI50,OVCAR-8,> 100 µM (inactive)
same,GI50,KM12,> 100 µM (inactive)
same,GI50,SK-MEL-28,> 100 µM (inactive)
same,GI50,DLD-1,> 100 µM (inactive)
same,GI50,UACC-257,> 100 µM (inactive)
same,GI50,XF498,> 100 µM (inactive)
same,GI50,DMS-273,> 100 µM (inactive)
same,GI50,SNB-19,> 100 µM (inactive)
same,GI50,SF-295,> 100 µM (inactive)
same,GI50,U-251,> 100 µM (inactive)
same,GI50,NCI-H460,> 100 µM (inactive)
same,GI50,A498,> 100 µM (inactive)
same,GI50,IGROV-1,> 100 µM (inactive)
same,GI50,SN12C,> 100 µM (inactive)
same,GI50,HCT-15,> 100 µM
same,GI50,TK-10,> 100 µM (inactive)
same,GI50,OVCAR-3,> 100 µM (inactive)
same,GI50,COLO 205,> 100 µM (inactive)
same,GI50,HOP-62,> 100 µM (inactive)
same,GI50,M14,> 100 µM (inactive)
same,GI50,SR,62.7 µM (inactive)
same,GI50,HOP-92,> 100 µM (inactive)
same,GI50,SW-620,> 100 µM (inactive)
same,GI50,HT-29,> 100 µM (inactive)
same,GI50,RXF 393,> 100 µM (inactive)
same,GI50,ACHN,> 100 µM (inactive)
same,GI50,SNB-78,> 100 µM (inactive)
same,GI50,SK-OV-3,> 100 µM (inactive)
same,GI50,K562,> 100 µM (inactive)
same,GI50,KM-20L2,> 100 µM (inactive)
same,GI50,UACC-62,> 100 µM (inactive)
same,GI50,DMS-114,> 100 µM (inactive)
same,GI50,NCI-H23,> 100 µM (inactive)
same,GI50,786-0,> 100 µM (inactive)
same,GI50,HL-60,45.3 µM (inactive)
same,GI50,LOX IMVI,> 100 µM (inactive)
same,GI50,Malme-3M,> 100 µM (inactive)
same,GI50,EKVX,> 100 µM (inactive)
same,GI50,HCC 2998,> 100 µM (inactive)
same,GI50,LXFL 529,> 100 µM (inactive)
same,GI50,HOP-18,> 100 µM (inactive)
same,GI50,NCI-H226,> 100 µM (inactive)
same,GI50,SNB-75,> 100 µM (inactive)
same,GI50,SF-539,> 100 µM (inactive)
same,GI50,HCT-116,> 100 µM (inactive)
same,GI50,CCRF-CEM,77.1 µM (inactive)
same,GI50,SK-MEL-2,> 100 µM (inactive)
same,GI50,OVCAR-4,> 100 µM (inactive)
same,GI50,MOLT-4,> 100 µM (inactive)
same,GI50,SF-268,> 100 µM (inactive)
COC(=O)C1CCC(=O)C(Sc2ccccc2)C1 (stereo unspecified),GI50,NCI-H522,52.7 µM (inactive)
same,GI50,RPMI-8226,44.3 µM (inactive)
same,GI50,UO-31,21.2 µM (inactive)
same,GI50,A549,> 100 µM (inactive)
same,GI50,SK-MEL-5,> 100 µM (inactive)
same,GI50,OVCAR-8,> 100 µM (inactive)
same,GI50,KM12,> 100 µM (inactive)
same,GI50,SK-MEL-28,> 100 µM (inactive)
same,GI50,DLD-1,> 100 µM (inactive)
same,GI50,UACC-257,83.8 µM (inactive)
same,GI50,XF498,> 100 µM (inactive)
same,GI50,DMS-273,> 100 µM (inactive)
same,GI50,SNB-19,> 100 µM (inactive)
same,GI50,SF-295,> 100 µM (inactive)
same,GI50,U-251,> 100 µM (inactive)
same,GI50,OVCAR-5,> 100 µM (inactive)
same,GI50,NCI-H460,> 100 µM (inactive)
same,GI50,A498,> 100 µM (inactive)
same,GI50,IGROV-1,51.6 µM (inactive)
same,GI50,SN12C,> 100 µM (inactive)
same,GI50,HCT-15,> 100 µM
same,GI50,TK-10,> 100 µM (inactive)
same,GI50,OVCAR-3,> 100 µM (inactive)
same,GI50,COLO 205,> 100 µM (inactive)
same,GI50,M14,> 100 µM (inactive)
same,GI50,HOP-92,50.1 µM (inactive)
same,GI50,SW-620,> 100 µM (inactive)
same,GI50,HT-29,> 100 µM (inactive)
same,GI50,RXF 393,> 100 µM (inactive)
same,GI50,ACHN,> 100 µM (inactive)
same,GI50,CAKI-1,> 100 µM (inactive)
same,GI50,SNB-78,> 100 µM (inactive)
same,GI50,SK-OV-3,> 100 µM (inactive)
same,GI50,K562,63.1 µM (inactive)
same,GI50,KM-20L2,> 100 µM (inactive)
same,GI50,UACC-62,80.7 µM (inactive)
same,GI50,M19-MEL,62.1 µM (inactive)
same,GI50,DMS-114,68.1 µM (inactive)
same,GI50,NCI-H23,> 100 µM (inactive)
same,GI50,HL-60,34 µM (inactive)
same,GI50,LOX IMVI,> 100 µM (inactive)
same,GI50,EKVX,> 100 µM (inactive)
same,GI50,LXFL 529,> 100 µM (inactive)
same,GI50,HOP-18,> 100 µM (inactive)
same,GI50,NCI-H226,> 100 µM (inactive)
same,GI50,SNB-75,24.4 µM (inactive)
same,GI50,SF-539,> 100 µM (inactive)
same,GI50,HCT-116,> 100 µM (inactive)
same,GI50,CCRF-CEM,22.5 µM (inactive)
same,GI50,OVCAR-4,> 100 µM (inactive)
same,GI50,MOLT-4,27.6 µM (inactive)
same,GI50,SF-268,59.8 µM (inactive)
